Measured values: ChEMBL document CHEMBL3585347, “Isolation of cholinesterase and β-secretase 1 inhibiting compounds from Lycopodiella cernua” (Bioorg Med Chem, 2015)
Active and inactive are the calls of the source. No cut-off for these calls is given here.

Assays:
Acetylcholinesterase [1] = target: T1, Acetylcholinesterase (Homo sapiens, UniProt P22303); experiment: Inhibition of AChE (unknown origin) using acetylthiocholine as substrate assessed as substrate hydrolysis by spectrophotometric/Ellman method
Cholinesterase [2] = target: T2, Cholinesterase (Homo sapiens, UniProt P06276); experiment: Inhibition of BChE (unknown origin) using butyrylthiocholine as substrate assessed as substrate hydrolysis by spectrophotometric/Ellman method
Beta-secretase 1 = Beta-secretase 1 (Homo sapiens, UniProt P56817); experiment: Inhibition of human recombinant BACE1 by fluorescence resonance energy transfer (FRET) assay
Acetylcholinesterase [3] = target: T1, Acetylcholinesterase; experiment: Mixed type inhibition of AChE (unknown origin) by Lineweaver-Burk plot analysis
Acetylcholinesterase [4] = target: T1, Acetylcholinesterase; experiment: Inhibition of AChE (unknown origin) by Dixon plot analysis
Cholinesterase [5] = target: T2, Cholinesterase; experiment: Inhibition of BChE (unknown origin) by Dixon plot analysis
Cholinesterase [6] = target: T2, Cholinesterase; experiment: Mixed type inhibition of BChE (unknown origin) by Lineweaver-Burk plot analysis

Beta-secretase 1, sequence (P56817 whole entry): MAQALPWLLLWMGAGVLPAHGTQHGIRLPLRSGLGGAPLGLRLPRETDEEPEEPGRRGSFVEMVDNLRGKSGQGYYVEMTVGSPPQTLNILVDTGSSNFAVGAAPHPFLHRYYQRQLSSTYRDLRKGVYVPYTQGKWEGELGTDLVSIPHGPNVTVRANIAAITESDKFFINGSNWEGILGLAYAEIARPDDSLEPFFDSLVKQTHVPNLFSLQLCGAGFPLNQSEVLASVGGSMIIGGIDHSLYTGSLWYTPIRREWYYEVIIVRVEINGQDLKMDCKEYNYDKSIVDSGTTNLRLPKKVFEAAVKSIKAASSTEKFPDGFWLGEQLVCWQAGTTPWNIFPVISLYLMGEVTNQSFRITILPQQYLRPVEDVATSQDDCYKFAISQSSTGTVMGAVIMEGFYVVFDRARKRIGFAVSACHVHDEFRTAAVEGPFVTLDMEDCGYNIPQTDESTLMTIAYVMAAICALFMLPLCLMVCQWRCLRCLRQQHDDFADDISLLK
T1 sequence (P22303 whole entry): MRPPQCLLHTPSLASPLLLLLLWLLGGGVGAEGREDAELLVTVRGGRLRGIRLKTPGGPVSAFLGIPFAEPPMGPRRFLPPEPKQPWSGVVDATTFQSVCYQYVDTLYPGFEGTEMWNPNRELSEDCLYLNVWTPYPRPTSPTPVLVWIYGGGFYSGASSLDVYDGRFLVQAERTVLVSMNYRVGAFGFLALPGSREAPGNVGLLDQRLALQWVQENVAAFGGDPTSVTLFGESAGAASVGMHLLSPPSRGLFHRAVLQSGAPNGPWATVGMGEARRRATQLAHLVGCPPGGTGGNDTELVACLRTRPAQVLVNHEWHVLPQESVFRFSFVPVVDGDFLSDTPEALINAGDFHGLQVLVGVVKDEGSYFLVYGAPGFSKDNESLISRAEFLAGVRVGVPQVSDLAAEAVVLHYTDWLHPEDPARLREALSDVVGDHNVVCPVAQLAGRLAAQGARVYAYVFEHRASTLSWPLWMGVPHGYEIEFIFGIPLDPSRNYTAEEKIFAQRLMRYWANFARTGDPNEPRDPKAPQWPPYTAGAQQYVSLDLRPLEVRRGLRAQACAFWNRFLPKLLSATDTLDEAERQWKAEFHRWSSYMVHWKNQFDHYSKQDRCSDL
T2 sequence (P06276 whole entry): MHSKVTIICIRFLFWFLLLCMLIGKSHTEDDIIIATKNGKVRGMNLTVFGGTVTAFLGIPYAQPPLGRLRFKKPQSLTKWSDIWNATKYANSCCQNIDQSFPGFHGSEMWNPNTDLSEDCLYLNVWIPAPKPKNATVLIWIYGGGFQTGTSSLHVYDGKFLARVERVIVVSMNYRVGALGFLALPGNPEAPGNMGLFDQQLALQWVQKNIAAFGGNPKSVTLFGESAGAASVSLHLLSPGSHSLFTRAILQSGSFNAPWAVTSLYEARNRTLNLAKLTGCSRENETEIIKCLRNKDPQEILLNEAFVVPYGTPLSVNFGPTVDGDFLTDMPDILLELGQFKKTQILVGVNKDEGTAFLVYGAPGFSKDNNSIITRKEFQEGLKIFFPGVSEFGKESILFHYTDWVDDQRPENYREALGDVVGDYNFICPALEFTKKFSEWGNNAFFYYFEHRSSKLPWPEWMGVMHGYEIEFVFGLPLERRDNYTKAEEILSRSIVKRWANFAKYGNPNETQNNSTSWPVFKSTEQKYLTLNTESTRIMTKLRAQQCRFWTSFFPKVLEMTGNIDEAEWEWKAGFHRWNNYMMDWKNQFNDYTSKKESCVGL

## C[C@@]12CC[C@@H]3[C@](C)(CC[C@H](OC(=O)c4ccc(O)cc4)[C@]3(C)C(=O)O)[C@H]1CC[C@@H]1[C@@]3(C)CC[C@@H](O)[C@](C)(CO)[C@@H]3C[C@H](O)[C@@]1(O)C2
Acetylcholinesterase [1]
  IC50: > 30 µM
Cholinesterase [2]
  IC50: > 30 µM
Beta-secretase 1
  IC50: 0.31 µM

## C[C@@]12CC[C@@H]3[C@](C)(CC[C@H](OC(=O)/C=C/c4ccc(O)cc4)[C@]3(C)C(=O)O)[C@H]1CC[C@H]1C(=CC[C@@H]3[C@]1(C)CC[C@@H](O)[C@]3(C)CO)C2
Acetylcholinesterase [1]
  IC50: > 30 µM
Cholinesterase [2]
  IC50: > 30 µM
Beta-secretase 1
  IC50: 1.07 µM

## CC1(C)[C@H](O)CC[C@]2(C)[C@H]3CC[C@H]4[C@@](C)(CC[C@@H]5[C@]4(C)CC[C@@H](O)[C@]5(C)C(=O)O)CC3=CC(=O)[C@@H]12
Acetylcholinesterase [1]
  IC50: > 30 µM
Cholinesterase [2]
  IC50: > 30 µM
Beta-secretase 1
  IC50: > 10 µM

## C[C@@]12CC[C@@H]3[C@](C)(CC[C@H](OC(=O)CCc4ccc(O)cc4)[C@]3(C)C(=O)O)[C@H]1CC[C@H]1C(=CC[C@@H]3[C@]1(C)CC[C@@H](O)[C@]3(C)CO)C2
Acetylcholinesterase [1]
  IC50: 1.69 µM
Acetylcholinesterase [3]
  inhibition: Active
Cholinesterase [2]
  IC50: 0.42 µM
Beta-secretase 1
  IC50: > 10 µM
Acetylcholinesterase [4]
  Ki: 7.97 µM
Cholinesterase [5]
  Ki: 0.99 µM

## CCCC[C@@H](O)/C=C/C=C/C(=O)O
Acetylcholinesterase [1]
  IC50: 0.22 µM
Acetylcholinesterase [3]
  inhibition: Active
Cholinesterase [2]
  IC50: > 30 µM
Beta-secretase 1
  IC50: 6.91 µM
Acetylcholinesterase [4]
  Ki: 1.17 µM

## CC1(C)[C@H](O)CC[C@@]2(C)[C@H]1CC[C@@]1(C)CC3=CC[C@H]4C(C)(C)[C@@H](O)CC[C@]4(C)[C@H]3CC[C@@H]12
Acetylcholinesterase [1]
  IC50: > 30 µM
Cholinesterase [2]
  IC50: 1.37 µM
Cholinesterase [6]
  inhibition: Active
Beta-secretase 1
  IC50: > 10 µM
Cholinesterase [5]
  Ki: 4.88 µM

## COC(=O)[C@]1(C)[C@@H]2CC[C@@]3(C)CC4=CC(=O)[C@@H]5[C@](C)(CC[C@@H](O)[C@]5(C)CO)[C@H]4CC[C@@H]3[C@@]2(C)CC[C@@H]1O [LYCERNUIC KETONE A]
Acetylcholinesterase [1]
  IC50: > 30 µM
Cholinesterase [2]
  IC50: > 30 µM
Beta-secretase 1
  IC50: > 10 µM

## COc1ccc(C(=O)O[C@H]2CC[C@@]3(C)[C@@H](CC[C@@]4(C)C[C@@]5(O)[C@H](CC[C@@H]43)[C@@]3(C)CC[C@@H](O)C(C)(C)[C@@H]3C[C@@H]5O)[C@@]2(C)C(=O)O)cc1O
Acetylcholinesterase [1]
  IC50: 9.98 µM
Cholinesterase [2]
  IC50: > 30 µM
Beta-secretase 1
  IC50: 0.98 µM

## CC(=O)O[C@H]1CC[C@@]2(C)[C@@H](CC[C@@]3(C)C[C@@]4(O)CC[C@H]5C(C)(C)[C@@H](OC(C)=O)CC[C@]5(C)[C@H]4CC[C@@H]32)C1(C)C
Acetylcholinesterase [1]
  IC50: 0.91 µM
Acetylcholinesterase [3]
  inhibition: Active
Cholinesterase [2]
  IC50: > 30 µM
Beta-secretase 1
  IC50: > 10 µM
Acetylcholinesterase [4]
  Ki: 2.49 µM

## CC1(C)[C@@H](O)CC[C@@]2(C)[C@H]1CC[C@@]1(C)C[C@@]3(O)CC[C@H]4C(C)(C)[C@@H](O)CC[C@]4(C)[C@H]3CC[C@@H]12
Acetylcholinesterase [1]
  IC50: > 30 µM
Cholinesterase [2]
  IC50: > 30 µM
Beta-secretase 1
  IC50: > 10 µM

## CC1(C)[C@H](O)CC[C@@]2(C)[C@H]1CC[C@@]1(C)CC3=CC[C@H]4C(C)(C)[C@H](O)CC[C@]4(C)[C@H]3CC[C@@H]12
Acetylcholinesterase [1]
  IC50: > 30 µM
Cholinesterase [2]
  IC50: > 30 µM
Beta-secretase 1
  IC50: > 10 µM

## C[C@@]12CC[C@@H]3[C@](C)(CC[C@H](O)[C@]3(C)C(=O)O)[C@H]1CC[C@H]1C(=CC(=O)[C@@H]3[C@]1(C)CC[C@@H](O)[C@]3(C)CO)C2
Acetylcholinesterase [1]
  IC50: > 30 µM
Cholinesterase [2]
  IC50: > 30 µM
Beta-secretase 1
  IC50: > 10 µM

## CC1(C)C(=O)CC[C@@]2(C)[C@H]1CC[C@@]1(C)CC3=CC(=O)[C@H]4C(C)(C)[C@H](O)CC[C@]4(C)[C@H]3CC[C@@H]12
Acetylcholinesterase [1]
  IC50: 10.7 µM
Cholinesterase [2]
  IC50: > 30 µM
Cholinesterase [6]
  inhibition: Active
Beta-secretase 1
  IC50: 0.23 µM
Cholinesterase [5]
  Ki: 4.78 µM
